The source of these data is publication PMC6447882, “Pharmacokinetics and Biodistribution of Pegylated Methotrexate after IV Administration to Mice” (Iranian Journal of Pharmaceutical Research : IJPR, 2018).

Molecules are shown by their SMILES. ≈ marks a conversion by molar mass, not a printed value. Where “and” joins values, the source holds several entries; their conditions need not be identical. Equal values may be shown once. Entries after “also recorded” stand apart in the source; their conditions may differ. Read-outs that look alike come from different tables or passages of the source.

Data set [1] in a line: in vivo. The note with it: mice; for half-life: iv. As to the method: A portion of 500 μL acetonitrile was added to a mixture of 225 μL plasma and 25 μL MTX or MTX-PEG5000 solution (100 µg/mL) and vortexed. Precipitated proteins were separated by centrifuging the mixture at 12000 rpm for 5 min. The supernatant was evaporated by a Multi-Evaporator (VLM EC 1, Italy) at 50 °C using nitrogen gas. The residue was dissolved in 150 μL mobile phase and injected to HPLC. The standards were prepared in triplicate at eight concentrations ranging from 0.25 to 100 µg/mL for MTX and from 1 to 1000 µg/mL for MTX-PEG5000.
A Knauer HPLC system consisted of a wellchrom pump k-1001, equipped with k-2701, DAD k-2700 detector was used. Chromatography was performed on a PerfectSilTarget® 100 HPLC Column (C8, 150 × 4.6 mm, 5 µm). For analysis of MTX, mobile phase consisted of phosphate-citrate buffer (pH 5): acetonitrile (88:12, v/v) and was delivered isocratically at a flow rate of 1 mL/min.
The column eluent was monitored using UV detector at the wavelength of 302 nm. For analysis of MTX-PEG5000, the mobile phase consisted of phosphate-citrate buffer (pH 5): acetonitrile (55:45, v/v) and was delivered isocratically at a flow rate of 0.5 mL/min. The column eluent was monitored using UV detector at the wavelength of 342 nm.
(§1) IV bolous injections of MTX and MTX-PEG5000 (70 mg/kg) were administered to mice through marginal veins by insulin syringe (gauge 27). At least three mice were sacrificed at each time point. The animals (n = 200) at dosing were in the range of 2-4 weeks of age and their mean weight was 20 ± 5 g. The blood samples were collected at 5, 10, 15, 30, 45, 60, 90, and 120 min intervals for MTX and for at 5, 10, 15, 30, 45, 60, 90, 120, 180, 240, 300, and 360 min intervals for MTX-PEG5000. At each time point, the blood samples were collected from at least three mice and after centrifuging (10000 rpm, for 5 min), the plasma samples were separated and immediately frozen at -20 °C. Then, the mice were cervically dislocated and their organs including heart, liver, spleen, kidney, lung, brain, and small intestine were removed and after washing with normal saline, were dried by facial tissue and exactly weighed. Whole removed organs and 0.25 to 0.5 g of liver and small intestine were minced and homogenized in a certain volume of normal saline using homogenizer IKA basic T25 (Germany). The organs were collected from MTX injected animals (10, 60 and 120 min for all organs and 5, 10, 30, 60 and 120 for liver tissue) and at 2, 6, 12, 24, and 48 h for mice administered by MTX-PEG5000.
The logarithm of plasma concentrations of MTX and MTX-PEG5000 were plotted vs. time. […] The pharmacokinetic parameters were obtained by fitting data to two-compartmental model equation (C = Ae^-αt + Be^-βt) and noncompartmental model using Excel 2010 (33).

The nature of data set [2]: Biodistribution (tissue distribution) after IV injection to mice. Type of data set: in vivo. The note with it: iv 70 mg/kg. How it is done: For preparation of MTX tissue samples, one volume of tissue homogenate in normal saline was mixed with two volume acetonitrile and centrifuged in 12000 rpm for 5 min. The supernatant was removed and evaporated to dryness under nitrogen gas. The residue was reconstituted in 250 μL mobile phase and was injected to HPLC. For preparation of MTX-PEG5000 tissue samples, one volume of tissue homogenate in normal saline was mixed with two volumes of dichloromethane and shaked for 15 min. After centrifugation (5000 rpm), the lower organic phase was aspirated and dehydrated by Na2SO4 and after dissolving in 200 μL mobile phase, was injected to HPLC. The standard solutions were prepared in triplicate at concentration levels ranging from of 1 to 50 µg/mL for MTX and 2.5 to 500 µg/mL for MTX-PEG5000.
The same HPLC instrument was utilized for analysis of MTX and MTX-PEG tissue samples. The precision and accuracy of the method were examined by adding known amounts of MTX (0. 25, 2.5 and 10 µg/mL) and MTX-PEG5000 (5, 50 and 500 µg/mL) to pool tissue (quality control) samples. The other steps were performed as plasma samples.
as §1, with “Whole removed organs and 0.25 to 0.5 g of liver and small intestine were minced and homogenized in a certain volume of normal saline using homogenizer IKA basic T25 (Germany). The organs were collected from MTX injected animals (10, 60 and 120 min for all organs and 5, 10, 30, 60 and 120 for liver tissue) and at 2, 6, 12, 24, and 48 h for mice administered by MTX-PEG5000.” left out

On the set-up of data set [3]: method as in PMID 18346806. The note with it: cited from earlier work.
For data set [4] the following is noted: relatively alkaline pH of plasma; no reference given; cited from earlier work.
Data set [5] has as its system plasma proteins. The note with it: cited from earlier work.
Details of data set [6]: method as in earlier work. The note with it: cited from earlier work.
On the set-up of data set [7]: method as in PMID 18346806, PMID 12506184. The note with it: drug linked to PEG40000 vs free drug; cited from earlier work.
Details of data set [8]: method as in PMID 18346806, PMID 12506184. The note with it: conjugation to PEG5000; cited from earlier work.
Where [9] appears, read: iv 70 mg/kg, two-compartmental model, n = 3.
Setting [10] is: iv 70 mg/kg, two-compartmental model, n = 3, 70 mg/kg.

What is called AUC is the area under the concentration-time curve, a measure of exposure. The term clearance denotes a measure of how efficiently the substance is removed, as volume per time. The MRT is a mean duration of stay, worked out from the concentration-time curve. By logP is commonly meant a log measure of how a compound divides between an organic and an aqueous phase. On to `CN(Cc1cnc2nc(N)nc(N)c2n1)c1ccc(C(=O)N[C@@H](CCC(=O)O)C(=O)O)cc1` [MTX, Methotrexate], for which, in data set [1] (iv 70 mg/kg, n = 3), the AUMC came out at 24.63 ± 2.84 mg.mL-.min2 and the Vc stood at 94.025 ± 6.814 mL. Also, the AUC in data set [1] (iv 70 mg/kg, n = 3, 70 mg/kg) is 2.64 mg·min/mL and 2.642 mg·min/mL and 2.642 ± 0.190 mg·min/mL. For the same compound, in data set [1] (setting [9]), the K10 was found to be 0.236 ± 0.043 min⁻¹, the K12 came out at 0.050 ± 0.020 min⁻¹ and the K21 came out at 0.036 ± 0.002 min⁻¹. In data set [1] (setting [10]), the “T1/2a (distribution half-life, T1/2 α)” value turned out to be 2.445 ± 0.549 min and the “T1/2b (elimination half-life, T1/2 β)” value amounted to 24.328 ± 0.657 min. In addition, the half-life in data set [1] (mouse, plasma, 70 mg/kg, two-compartmental model, n = 3, read-out: T1/2a (distribution half-life, T1/2 α)) worked out at 2.45 min. In addition, the half-life in data set [1] (mouse, plasma, 70 mg/kg, two-compartmental model, n = 3, read-out: T1/2b (elimination half-life, T1/2 β)) was determined as 24.3 min. In data set [1] (mouse, plasma, iv 70 mg/kg, n = 3, read-out: CLs (systemic clearance)), the clearance came to 22.4 ± 5.46 mL/min. Also, in data set [1] (mouse, plasma, iv 70 mg/kg, noncompartmental model, n = 3, read-out: MRT (mean residence time) (converted)), the MRT is 9.3 min. Besides, in data set [2], the “Time after injection up to which measurable in tissues” value was not above 2 h. The “Accumulation in organs (liver, intestine)” value in data set [2] (70 mg/kg) is “accumulated in liver immediately after its distribution phase (10 min) and then redistributed to small intestine (60 min); also recorded: high and fast accumulation in liver”. In data set [2] (brain), the “Presence in the brain” value is “no detectable amount of drug was found in the brain”. In addition, in data set [3] (pH4), the “Solubility in aqueous solution” value is on record as 0.08 mg/mL (≈ 0.176 mM). For the same compound, the “Solubility in aqueous solution” value in data set [3] (pH8) was 58.17 mg/mL (≈ 128 mM). Further, the logP in data set [4] is -1.4. For the same compound, the Protein binding in data set [5] is 30-50%. Besides, in data set [5] (no reference given), the “Portion of the drug bound to plasma proteins” value is reported as 50%. The Plasma half-life in data set [6] is 90 to 210 min.

As to `CC[C@@]1(O)C(=O)OCc2c1cc1n(c2=O)Cc2cc3ccccc3nc2-1` [Campthotecin], in data set [7], the “T1/2 β” value was 1320 min.

Take `Nc1ccn([C@@H]2O[C@H](CO)[C@@H](O)C2(F)F)c(=O)n1` [Gemcitabine]: in data set [8], the AUC was 118.55 µg·min/mL, the “T1/2 α” value is 59.4 min, the “T1/2 β” value is 673.8 min and the clearance is reported as 0.654 mL/min.
